Reference: ChEMBL document CHEMBL4706612 (Eur J Med Chem, 2021)

How the values were obtained:
[1] = Inhibition of human MetAp1a by Morrison method
[2] = Inhibition of Vibrio coralliilyticus MetAp1a by Morrison method
[3] = Inhibition of Vibrio parahaemolyticus MetAp1a by Morrison method
[4] = Inhibition of Vibrio cholerae MetAp1a by Morrison method

| SMILES | Ki [1] [nM] | Ki [2] [nM] | Ki [3] [nM] | Ki [4] [nM] |
| --- | --- | --- | --- | --- |
| Oc1nc(-c2ccccn2)nc2c1CSCC2 | 760 | 7650 | 24000 | 39000 |
| Cc1nc(-c2ccccn2)nc(SCC(=O)N2CCOCC2)c1Cl | 170 | – | 12600 | 7960 |
| Cc1cc(S)nc(-c2ccccn2)n1 | 150 | 16200 | 200 | 120 |
| Cc1cc(Oc2ccc(Cl)cc2)nc(-c2ccccn2)n1 | 230 | – | 350 | 730 |
| Cc1nc(-c2ccccn2)nc(N(C)c2ccccc2)c1Cl | 770 | – | 240 | 490 |
| COc1ccc(C(=O)CSc2nc(-c3ccccn3)nc(C)c2Cl)cc1 | – | – | 5710 | 1430 |
| Cc1nc(-c2ccccn2)nc(SCC(=O)c2ccc(F)cc2)c1Cl | 2350 | – | 1900 | 1890 |
| Cc1nc(-c2ccccn2)nc(N2CCOCC2)c1Cl | 110 | – | 1620 | 880 |
| CC(C)S(=O)(=O)c1cnc(-c2ccccn2)nc1N | 220 | 49300 | 35000 | 60 |
| Cc1nc(-c2ccccn2)nc(NCCNc2cccc(C(F)(F)F)n2)c1Cl | – | – | 7910 | 3560 |
| Cc1nc(-c2ccccn2)nc(NC2CCN(c3ncc(C(F)(F)F)cc3Cl)CC2)c1Cl | – | – | 4560 | 4780 |
| Cc1nc(-c2ccccn2)nc(N2CCN(c3ncnc4scc(-c5ccccc5)c34)CC2)c1Cl | – | – | 1950 | 480 |
| Cc1nc(-c2ccccn2)nc(N2CCCN(Cc3ccc(Cl)cc3Cl)CC2)c1Cl | 850 | – | 3230 | 730 |
| Oc1cc(C(F)(F)F)nc(-c2ccccn2)n1 | 100 | 13100 | 90 | 150 |
| FC(F)(F)c1nc(-c2ccccn2)ncc1-c1nnnn1-c1ccc(Cl)cc1 | – | – | 10800 | – |
| FC(F)(F)c1cccc(-c2nc(-c3ccccn3)ncc2-c2nnnn2-c2ccccc2)c1 | 43900 | – | 2730 | 1130 |
| Cc1nc(-c2ccccn2)nc(N2CCN(C)CC2)c1Cl | 290 | – | 480 | 200 |
| Cc1cc(Oc2cc(Cl)cc(Cl)c2)nc(-c2ccccn2)n1 | 4210 | – | 280 | 50 |
| Cc1cc(O)nc(-c2ccccn2)n1 | 620 | 6800 | 210 | 300 |

| SMILES | Ki [1] [nM] | Ki [2] [nM] | Ki [3] [nM] | Ki [4] [nM] |
| --- | --- | --- | --- | --- |
| CSc1nc(-c2ccccn2)nc(N)c1C#N | 210 | – | 130 | 680 |
| Cc1nc(-c2ccccn2)nc(O)c1Cc1c(Cl)cccc1Cl | – | 10200 | 160 | 230 |
| Cc1nc(-c2ccccn2)nc(O)c1CC1CC1 | 130 | 9290 | 80 | 320 |
| FC(F)(F)c1cc(Nc2cc(Cl)cc(Cl)c2)nc(-c2ccccn2)n1 | – | – | 140 | 60 |
| CCCCCc1c(C)nc(-c2ccccn2)nc1O | 70 | 11600 | 3310 | 720 |
| C=CC(C)c1c(O)nc(-c2ccccn2)nc1CCC (centres undefined) | 80 | 7240 | 150 | 310 |
| CCCc1nc(-c2ccccn2)nc(O)c1CC1CC1 | 1380 | 9130 | 1130 | 70 |
| Nc1cc(O)nc(-c2ccccn2)n1 | 650 | 11900 | 240 | 80 |
| CCOC(=O)c1cnc(-c2ccccn2)nc1O | 510 | 5930 | 1420 | 110 |
| CC(=O)Nc1cc(O)nc(-c2ccccn2)n1 | 1480 | 5120 | 1110 | 90 |
| Cc1nc(-c2ccc(C(F)(F)F)cn2)nc(N2CCCCC2)c1Cl | 55800 | – | – | 4610 |
| Cc1nc(-c2ccc(C(F)(F)F)cn2)nc(Sc2ccc(Cl)cc2)c1Cl | – | – | 16200 | 6960 |
| c1ccc(-c2ccccn2)nc1 | 390 | 2830 | 2910 | 2840 |
| Cc1nc(-c2ccccn2)nc(N2CCN(CCO)CC2)c1Cl | – | – | 3710 | 600 |
| Cc1nc(-c2ccccn2)nc(NCCc2ccccc2)c1Cl | – | – | 3730 | 510 |
| CCN(CC)C(=O)Oc1nc(-c2ccccn2)nc(COC)c1CC1CC1 | 450 | – | 2810 | 2470 |
| COCc1nc(-c2ccccn2)nc(O)c1CC1CC1 | 290 | 27500 | 250 | 160 |
| CCCc1nc(-c2ccccn2)nc(OC(=O)N(C)C)c1Cc1c(F)cccc1Cl | 180 | – | 600 | 70 |
